# From patent US20120141491A1, “METHODS AND COMPOSITIONS FOR THE TREATMENT OF CANCERS AND PATHOGENIC INFECTIONS” (priority 2009, published 2012)
# “Also recorded” adds a separate entry of the source. Like-named read-outs stand apart in the source and are kept apart here.
# Key:
# Format in all cases: cell-based
# [1] = test system: Saos-2 osteosarcoma cells expressing GFP-LC3; test: Autophagy response by punctate localization of GFP-LC3 to autophagic vacuoles, fluorescence microscopy; conditions: for Stimulation of autophagy compared with amino acid and serum starved cells (FIG. 2G): 100 μM; for Stimulation of autophagy compared with amino acid and serum starved cells (FIG. 2G) / Enhancement of autophagy (GFP-LC3 at autophagic vacuoles): enriched (Fed) medium; for Activate Autophagy Response: Table 1; for Induction of autophagy: Table 2; for Localization of GFP-LC3 to autophagic vacuoles (FIG. 4): 100 mM Bcl-targeted compounds, fed Saos2 cells
# Experimental: FIGS. 2A-2G. Activation of autophagy by Bcl-XL targeting compounds. The positions of C2 in Site 1 (FIG. 2A), C5 in Site 1 (FIG. 2B), and C8 in Site 2 (FIG. 2C) of Bcl-xl are shown by in silico molecular docking. Saos-2 osteosarcoma cells expressing GFP-LC3 were incubated in enriched (Fed) medium in the presence of C2 (FIG. 2D), C5 (FIG. 2E) and C8 (FIG. 2F) Bcl-targeted compounds. GFP-LC3 is found diffuse throughout the cytosol and nucleus when autophagy is suppressed. Ongoing autophagy can be visualized by the presence of GFP-LC3 at autophagic vacuoles (AVs) that appear as dots (arrows). […] In FIG. 2E, Saos-2 osteosarcoma cells expressing GFP-LC3 were incubated in enriched (Fed) medium in the absence and presence of Bcl-targeted compounds or in medium lacking amino acids and serum (Starved).
# (§1) FIG. 4A-4F. Activation of autophagy by Bcl-targeted compounds. The localization of GFP-LC3 to autophagic vacuoles was enhanced by […] Bcl-targeted compounds in Saos-2 osteosarcoma cells. The autophagy response in fed Saos2 cells was measured in the absence and presence of anti-Bcl compounds by visualizing the punctate localization of GFP-LC3 (FIGS. 4A-4C) and RFP-GFP-LC3 (FIGS. 4D-4F) to autophagic vacuoles. In untreated fed cells, the GFP-LC3 is localized uniformly throughout the cell. […] Autophagy in cells expressing RFP-GFP-LC3 (FIGS. 4D-4F) was activated with compound B2-1. Structures containing RFP (red, FIG. 4D) and GFP (green, FIG. 4E) are autophagosomes (arrow), while RFP (red, FIG. 4D) structures are autolysosomes (arrowhead).
# (§2) FIGS. 5A-5C. Characterization of proBeclin 1 compounds. Upon ranking 100 NCl compounds by in silico docking to Bcl-xl, the autophagy responses were evaluated in fed Saos-2 cells expressing GFP-LC3 (FIG. 5A). […] Cells were maintained in nutrient-rich medium in the absence and presence of Bcl-targeted compounds for 4 hr. The cells were then solubilized, Beclin 1 complex immunoprecipitated, and the Beclin 1 hound proteins identified by Western blotting (FIG. 5C). The IgG-LC is the immunoglobin light chain of the anti-Beclin 1 antibody that was used to immunoprecipitate the complex. The absence of Bcl-xl is indicative of an inhibition of Beclin 1 binding.
# This was done in Saos-2 osteosarcoma cells stably expressing the autophagosome marker, GFP-LC3. In fed cells not undergoing autophagy GFP-LC3 is a soluble protein found throughout the cytosol. In amino acid and serum starved cells, autophagy is activated and GFP-LC3 becomes associated with autophagic vacuoles that can be visualize by fluorescence microscopy.
# (§3) When autophagy is suppressed, GFP-LC3 distributes uniformly throughout the cellular cytoplasm (FIG. 4A). Autophagy response can be observed by visualizing the punctuate pattern of GFP-LC3 indicative of the presence of autophagic vacuoles. We can also use tandem-labeled LC3, RFP-GFP-LC3 to better assess the dynamics of the autophagy response by visualizing both autophagosomes and autolysosomes (FIG. 4D-4F). […] To further substantiate that the accumulation of GFP-LC3 structures is not due to a blockage of basal autophagy but the positive effects of the compounds on the autophagy response, the autophagy response is validated by quantitative protein turnover measures using radiolabeled amino acids (FIG. 5B). Finally, we determine whether the compound interferes with Beclin 1 binding to Bcl-xl (FIG. 5C) and Bcl-2 as we would suspect if the compound acts through the intended novel mechanism of action.
# NeuT cells = test system: NeuT cells
# Experimental: (§4) FIGS. 3A-3E. Effects of Bcl-XL targeted small compounds on the autophagy response and cell survival in NeuT cells. The positions of C4 in Site 1 (FIG. 3A), and C9 in Site 2 (FIG. 3B) of Bcl-xl are shown by in silico molecular docking. NeuT (Her2-positive breast cancer cell line) cells expressing GFP-LC3 were incubated in enriched (Fed) medium in the presence of C4 (FIG. 3C) and C9 (FIG. 3D) Bcl-targeted compounds. GFP-LC3 is found on autophagic vacuole that appear as dots (arrows). In FIG. 3E, the survival of NeuT cells was quantified after 20h of treatment with 0.1-1000 μM of Site 1 (C2 and C4) and Site 2 (C7 and C9) compounds.
# (§5) Cell survival is suppressed by Bcl2-targeted compounds: Next, we examined the effects of the Bcl-xl targeted compounds C2, C4, C7, and C9 on autophagy and cell death in Her2/Neu-positive NeuT breast carcinoma cells (FIGS. 3A-E).
# Beclin 1/Bcl binding = Beclin 1/Bcl binding by immunoprecipitation with anti-Beclin 1 antibodies and Western blotting; conditions: for Inhibit Beclin 1 Binding: Table 1; for Beclin 1 binding to Bcl-xl / Bcl proteins: nutrient-rich medium, 4 hr
# Source text: FIGS. 5A-5C. Characterization of proBeclin 1 compounds. […] Cells were maintained in nutrient-rich medium in the absence and presence of Bcl-targeted compounds for 4 hr. The cells were then solubilized, Beclin 1 complex immunoprecipitated, and the Beclin 1 hound proteins identified by Western blotting (FIG. 5C). The IgG-LC is the immunoglobin light chain of the anti-Beclin 1 antibody that was used to immunoprecipitate the complex.
# Autophagy response can be observed by visualizing the punctuate pattern of GFP-LC3 indicative of the presence of autophagic vacuoles. We can also use tandem-labeled LC3, RFP-GFP-LC3 to better assess the dynamics of the autophagy response by visualizing both autophagosomes and autolysosomes (FIG. 4D-4F). […] Finally, we determine whether the compound interferes with Beclin 1 binding to Bcl-xl (FIG. 5C) and Bcl-2 as we would suspect if the compound acts through the intended novel mechanism of action.
# protein degradation = test: Protein degradation by pulse-chase methods using 14C-valine; conditions: for Rates of protein degradation (FIG. 5B): 14C-valine pulse-chase, compared to a control compound, n=6; for Stimulate Protein Degradation: Table 1; for Proteolysis, bar coding of FIG. 5A: black bar stimulated, striped bar inhibited
# Experimental: as §2, §3
# [2] = test system: NeuT (Her2-positive breast cancer cell line) cells expressing GFP-LC3; test: Autophagy response by GFP-LC3 localization in NeuT cells; conditions: enriched (Fed) medium
# Experimental: as §4, §5
# [3] = test system: Saos2 cells expressing RFP-GFP-LC3; test: Autophagy flux with tandem-labeled RFP-GFP-LC3 (autophagosomes and autolysosomes); conditions: fed Saos2 cells; listed as B2-1
# Experimental: as §1
# When autophagy is suppressed, GFP-LC3 distributes uniformly throughout the cellular cytoplasm (FIG. 4A). Autophagy response can be observed by visualizing the punctuate pattern of GFP-LC3 indicative of the presence of autophagic vacuoles. […] To further substantiate that the accumulation of GFP-LC3 structures is not due to a blockage of basal autophagy but the positive effects of the compounds on the autophagy response, the autophagy response is validated by quantitative protein turnover measures using radiolabeled amino acids (FIG. 5B). […]
SMILES,Activate Autophagy Response [1],Induction of autophagy [1],Induction of cell death (NeuT cells),Inhibit Beclin 1 Binding (Beclin 1/Bcl binding),Stimulate Protein Degradation (protein degradation),Stimulation of autophagy compared with amino acid and serum starved cells (FIG. 2G) [1],Enhancement of autophagy (GFP-LC3 at autophagic vacuoles) [1],Autophagy in NeuT cells [2],"Induction of cell death (NeuT cells; Table 2, cells not given)",further results
"CCCCC(CC)CN1CN(CC(CC)CCCC)CC(C)(N)C1 (stereo not shown) [NSC17764, 5-pyrimidinamine, 1,3-bis(2-ethylhexyl)hexhydro-5-methyl-]",Yes,Induces,causes cell death,No,No,–,–,–,–,"Stimulation of autophagy compared with amino acid and serum starved cells (FIG. 2G) ([1]; listed as C5): promote autophagy; also recorded: stimulated autophagy to levels seen in amino acid and serum starved cells; Enhancement of autophagy (GFP-LC3 at autophagic vacuoles) ([1]; listed as Bx-11): promotes an accumulation of GFP-LC3 structures; also recorded: promote the accumulation of autophagic vacuoles; Enhancement of autophagy (GFP-LC3 at autophagic vacuoles) ([1]; listed as C5): enhanced autophagy; Rates of protein degradation (FIG. 5B) (protein degradation; listed as Bx-11): suppressed protein degradation; also recorded: inhibit protein degradation; Proteolysis, bar coding of FIG. 5A (protein degradation): inhibited"
Nc1c(/N=N/c2ccc(S(=O)(=O)Nc3cnccn3)cc2)cc(S(=O)(=O)O)c2ccccc12 [NSC31331],Yes,Induces autophagy,–,Yes,–,promote autophagy,stimulate autophagy,induced autophagy,–,Localization of GFP-LC3 to autophagic vacuoles (FIG. 4) [1]: autophagic vacuoles are visualize as dots or ring-like structures; Beclin 1 binding to Bcl-xl / Bcl proteins (Beclin 1/Bcl binding): interfere with Beclin 1 binding; Rates of protein degradation (FIG. 5B) (protein degradation): elevated
O=C(C[N+]12CN3CN(CN(C3)C1)C2)c1ccc2ccccc2c1.[Br-] [NSC36400],Yes,Induces autophagy,–,No,–,promote autophagy,–,enhanced autophagy,causes cell death,–
"CN(C)CCCN1CC2CCCCC2C1 (stereo not shown) [NSC43537, 3-(1,3,3a,4,5,6,7,7a-octahydroisoindol-2-yl)-N,N-dimethylpropan-1-amine]",Yes,NSC 43537 Induces autophagy; not tested for the induction of cell death,–,Yes,Yes,–,stimulate autophagy,–,–,"Autophagy / autophagy flux in cells expressing RFP-GFP-LC3 [3]: activated; also recorded: autophagy flux is enhanced; Beclin 1 binding to Bcl-xl / Bcl proteins (Beclin 1/Bcl binding): inhibiting Beclin 1 binding; Rates of protein degradation (FIG. 5B) (protein degradation; listed as B2-1): elevated; also recorded: stimulate; Proteolysis, bar coding of FIG. 5A (protein degradation): stimulated proteolysis"
Nc1nc(S)c2ncn(C3CC(O)C(COP(=O)(O)O)O3)c2n1 (stereo not shown) [NSC94668],Yes,Induces autophagy,causes cell death,No,Yes,promote autophagy,activate autophagy,enhanced autophagy,–,Localization of GFP-LC3 to autophagic vacuoles (FIG. 4) [1]: autophagic vacuoles are visualize as dots or ring-like structures; Beclin 1 binding to Bcl-xl / Bcl proteins (Beclin 1/Bcl binding; listed as Bx-22): did not; also recorded: do not appear to affect Beclin 1 binding; Rates of protein degradation (FIG. 5B) (protein degradation; listed as Bx-22): elevated; also recorded: activate
CC(=O)C1=C(O)C2(C)c3c(O)c(C)c(O)c(C(C)=O)c3OC2CC1=O (stereo not shown) [NSC280057],Yes,Induces autophagy,–,No,–,–,–,–,causes cell death,Stimulation of autophagy compared with amino acid and serum starved cells (FIG. 2G) ([1]; listed as C10): promote autophagy; also recorded: stimulated autophagy to levels seen in amino acid and serum starved cells
CN1CCN(CCSC2Cc3cc(Cl)ccc3Sc3ccccc32)CC1 (stereo not shown) [NSC635366],Yes,Induces autophagy,causes cell death,–,No,–,–,–,–,Stimulation of autophagy compared with amino acid and serum starved cells (FIG. 2G) ([1]; listed as C8): promote autophagy; also recorded: stimulated autophagy to levels seen in amino acid and serum starved cells; Enhancement of autophagy (GFP-LC3 at autophagic vacuoles) ([1]; listed as Bx19): promote the accumulation of autophagic vacuoles; Enhancement of autophagy (GFP-LC3 at autophagic vacuoles) ([1]; listed as C8): enhanced autophagy; Rates of protein degradation (FIG. 5B) (protein degradation): inhibit protein degradation
Cl.NC(CSSCC(N)Cc1ccccc1)Cc1ccccc1 (stereo not shown) [NSC656252],Yes,Induces autophagy,–,–,–,–,–,–,causes cell death,–
